# Results taken from patent publication US20120004235A1, “METHODS TO TREAT CANCER” (Rutgers, The State University of New Jersey, priority 2009, published 2012).
# pIC50: −log10 of the molar value.
# Tests used:
# [1] = In vitro metabolic stability (Example 22); assay type: in vitro ADME; settings: in vitro in mouse, rat, dog, and human
# Procedure: (§1) The in vitro and in vivo activity of compound 2 and two of its metabolites (compound 5 and compound 6) were explored and compared with the activity of camptothecin Top1 inhibitors. […] In human HCT-116 colon ca, HT-29 colon ca and NCI-H460 NSCLC cells the concentration response for compound 2, compound 5 and compound 6 were the same. […] Compound 2 was administered intravenously on a QODx3 schedule for 2 cycles.
# [2] = test system: Human H1299 Lung Tumor Xenograft Model; test: Test D xenograft, Compound 2 free base; settings: qod × 3 for 2 cycles
# [3] = In vitro plasma binding (Example 22); assay type: in vitro ADME; settings: in vitro in mouse, rat, dog, and human
# Procedure: as §1
# [4] = Half-life in nude mice (Example 22); assay type: in vivo; settings: for half-life: mouse, in vivo, nude mice
# Procedure: The in vitro and in vivo activity of compound 2 and two of its metabolites (compound 5 and compound 6) were explored and compared with the activity of camptothecin Top1 inhibitors. […] In human HCT-116 colon ca, HT-29 colon ca and NCI-H460 NSCLC cells the concentration response for compound 2, compound 5 and compound 6 were the same. […]. Compound 2 was administered intravenously on a QODx3 schedule for 2 cycles.
# [5] = test system: NCI-H460 Human Non-small Cell Lung Carcinoma; test: Human tumor cell CFU assay (Test B); assay type: cell-based; settings: Homo sapiens, NCI-H460, colony formation, continuous exposure 7-9 days
# Procedure: (§2) For human tumor cell CFU assays, the cell lines which grow as monolayers, MDA-MB-231, HCT116, HT29, NCI-H460, KB3-1 and KBV-1 were grown in RPMI medium (Invitrogen/Gibco, Grand Island, N.Y.) supplemented with 5% fetal bovine serum (Invitrogen/Gibco, Grand Island, NY). The RPMI-8226 cell line grows in suspension.
# (§3) For experiments, human tumor cells (1 103) were plated in 6-well plates in medium supplemented with 5% or 10% fetal bovine serum. The compounds were tested in concentrations over the range from 0.01 to 100 nanomolar in half-log intervals covering […] along with untreated control wells. In later experiments some cases the concentration ranges were refined to focus on the region of interest in the response curves. Each compound concentration was tested in duplicate wells. Cultures were exposed to the compounds continuously for 7-9 days at 37° C. in a humidified atmosphere of 5% carbon dioxide balance air. Each experiment was performed three independent times. Colonies were defined as clusters containing 30 or more cells.
# (§4) For the monolayer cultures, colonies were visualized by staining with a preformulated crystal violet solution (Fisher Cat #291-472) which contained 0.41% crystal violet, 12% ethanol balance deionized water. To visualize the colonies, the medium was removed by aspiration; the monolayer was rinsed once with phosphate buffered saline which was removed by aspiration. Three drops of crystal violet solution was added to each well and the 6-well plate was rotated so that the crystal violet solution covered the surface area of each well. After 5 minutes exposure time, the wells were rinsed twice with phosphate buffered saline and the colonies were visible.
# (§5) The values were expressed as the mean values with lower and upper 95% confidence intervals in nanomolar concentrations.
# [6] = test system: MDA-MB-231 Human Breast Carcinoma; test: Human tumor cell CFU assay (Test B); assay type: cell-based; settings: Homo sapiens, MDA-MB-231, colony formation, continuous exposure 7-9 days
# Procedure: as §2, §3, §4, §5
# [7] = test system: KB-V1 MDR1+ KB3-1 Subline; test: Human tumor cell CFU assay (Test B); assay type: cell-based; settings: Homo sapiens; colony formation, continuous exposure 7-9 days
# Procedure: as §2, §3, §4, §5
# [8] = test system: KB3-1 HeLa Human Cervical Carcinoma; test: Human tumor cell CFU assay (Test B); assay type: cell-based; settings: Homo sapiens, colony formation, continuous exposure 7-9 days
# Procedure: as §2, §3, §4, §5
# [9] = test system: HCT116 Human Colon Carcinoma; test: Human tumor cell CFU assay (Test B); assay type: cell-based; settings: Homo sapiens, HCT-116, colony formation, continuous exposure 7-9 days
# Procedure: as §2, §3, §4, §5
# [10] = test system: Human HCT-116 Colon Tumor Xenograft Model; test: Test D xenograft, Compound 2 and metabolites; settings: 1.7 mg/kg/day IV, qod × 3 for 2 cycles
# [11] = test system: HCT-116 human colon tumor xenograft; test: Compound 2 after oral administration vs. the HCT-116 xenograft model
# [12] = In vitro partitioning into red blood cells (Example 22); assay type: in vitro ADME; settings: in vitro in mouse, rat, dog, and human
# Procedure: as §1
# [13] = test system: Human HCT-15 Colon Tumor Xenograft Model; test: Test D xenograft, Compound 2 free base; assay type: in vivo, nu/nu mice; settings: for Increase in Life Span (ILS) / Tumor Growth Delay T-C / Tumor Growth Inhibition T/C (tumor volume): qod × 3 for 2 cycles
# [14] = test system: Human LOX-IMVI Melanoma Tumor Xenograft Model; test: Test D xenograft, Compound 2 free base; settings: qod × 3 for 2 cycles
# [15] = test system: human HCT-116 colon ca, HT-29 colon ca and NCI-H460 NSCLC cells; test: 72 hour exposure concentration response in tumor cells (Example 22); assay type: cell-based; settings: range over HCT-116, HT-29 and NCI-H460 cells and the three compounds
# Procedure: as §1
# [16] = read-out: IC50 Values (95% Lower and Upper Confidence Intervals)
# [17] = read-out: IC90 Values (95% Lower and Upper Confidence Intervals)
# [18] = 1.36 mg/kg/day PO, qod×3 weekly for 2 cycles
# [19] = 2.72 mg/kg/day PO, qod×3 weekly for 2 cycles
# [20] = PO dosages (0.68, 1.36, 2.72 mg/kg/day, qod×3 weekly for 2 cycles)
smiles,measurement,setting,value
"CNCCn1c(=O)c2cc(OC)c(OC)cc2c2cnc3cc4c(cc3c21)OCO4 [Compound 2, 8,9-dimethoxy-2,3-methylenedioxy-5-[2-(N-methylamino)ethyl]-5H-dibenzo[c,h]1,6-naphthyridin-6-one]",metabolic stability,[1],high metabolic stability
same,Increase in Life Span (ILS),[2]; 1 mg/kg/day IV,1.7x
same,Tumor Growth Delay T-C,[2]; 1 mg/kg/day IV,20 days
same,Tumor Growth Inhibition T/C (tumor volume),[2]; 1 mg/kg/day IV,22.6%
same,Increase in Life Span (ILS),[2]; 1.36 mg/kg/day IV,1.8x
same,Tumor Growth Delay T-C,[2]; 1.36 mg/kg/day IV,24 days
same,Tumor Growth Inhibition T/C (tumor volume),[2]; 1.36 mg/kg/day IV,13.2%
same,Increase in Life Span (ILS),[2]; 1.7 mg/kg/day IV,2.1x
same,Tumor Growth Delay T-C,[2]; 1.7 mg/kg/day IV,34 days
same,Tumor Growth Inhibition T/C (tumor volume),[2]; 1.7 mg/kg/day IV,8.7%
same,plasma binding,[3],88-93%
same,half-life,[4]; ip,10.4 h
same,half-life,[4]; iv,5.1 h
same,half-life,[4]; po,3.6 h
same,t1/2,"[4]; tumor-bearing mice, compared with nude mice",longer
same,pIC50,[5]; [16],8.92
same,IC90,[5]; [17],5 nM
same,pIC50,[6]; [16],9.70
same,IC90,[6]; [17],0.7 nM
same,pIC50,[7],8.70
same,IC90,[7],8.3 nM
same,pIC50,[8],8.77
same,IC90,[8]; [17],7.7 nM
same,pIC50,[9]; [16],9.05
same,IC90,[9]; [17],2.8 nM
same,Increase in Life Span (ILS),[10],1.9x
same,Tumor Growth Delay T-C,[10],28 days
same,Tumor Growth Inhibition T/C (tumor volume),[10],36.4%
same,TGD,[11]; [18],no effect on TGD
same,TGI (T/C),[11]; [18],57.6%
same,ILS,[11]; [19],1.5 fold
same,TGD (T-C),[11]; [19],18 days
same,toxic deaths,[11]; [20],no toxic deaths
same,weight loss,[11]; [20],< 20%
same,partitioning into red blood cells,[12],concentration dependent partitioning into red blood cells
same,Increase in Life Span (ILS),[13]; 1 mg/kg/day IV,1.3x
same,Tumor Growth Delay T-C,[13]; 1 mg/kg/day IV,14 days
same,Tumor Growth Inhibition T/C (tumor volume),[13]; 1 mg/kg/day IV,37.1%
same,Increase in Life Span (ILS),[13]; 2 mg/kg/day IV,1.8x
same,Tumor Growth Delay T-C,[13]; 2 mg/kg/day IV,35 days
same,Tumor Growth Inhibition T/C (tumor volume),[13]; 2 mg/kg/day IV,8.6%
same,maximum body weight loss,"[13]; high dosage, IV QODx3 for 2 cycles",25.7%
same,Increase in Life Span (ILS),[14]; 1 mg/kg/day IV,1.1x
same,Tumor Growth Delay T-C,[14]; 1 mg/kg/day IV,2 days
same,Tumor Growth Inhibition T/C (tumor volume),[14]; 1 mg/kg/day IV,89.4%
same,Increase in Life Span (ILS),[14]; 2 mg/kg/day IV,2.8x
same,Tumor Growth Delay T-C,[14]; 2 mg/kg/day IV,25 days
same,Tumor Growth Inhibition T/C (tumor volume),[14]; 2 mg/kg/day IV,66.1%
same,Tumor Growth Inhibition T/C (tumor volume),[14]; 4 mg/kg/day IV,39.1%
same,pIC50,[15]; read-out: IC50 concentrations,9.19 to 9.30
same,IC90,[15]; read-out: IC90 concentrations,1.8 to 2 nM
